The text below walks through data of patent publication US20250281480A1, “PHARMACEUTICAL DRY POWDER INHALATION FORMULATION” (Bayer Aktiengesellschaft, priority 2021, published 2025).

The subject of one series is healthy male subjects. Description: Phase I, healthy male subjects, 7 days: bodyplethysmography, total specific airway resistance (sRaw). The format is in vivo, human. The protocol:
(§1) Healthy White male subjects, aged 18 to 45 years and with a body mass index (BMI) above/equal 18.5 and below/equal 29.9 kg/m2 were treated in a clinical pharmacological phase I study on seven days with inhaled once daily doses of 480 or 1000 or 2000 μg (2 capsules of 1000 μg) (nominal dose) of dry powder formulations of example 2 or Placebo. The subjects inhaled the drug powder from capsules (see under C, e.g. tables 22 and 23) inserted into a handheld inhalation device by one deep inhalative breath. The dry powder formulation of the drug is dispersed into the airstream and fine particles are transported into the deep parts of the lung where it is intended to cause a vasodilation of the blood vessels in PH patients for a substantial reduction of increased blood pressure in the central pulmonary blood vessels in PAH patients or other subtypes of PH. This effect cannot be shown in subjects with healthy lungs. In addition inhaled drug causes a dilation of the bronchial airways and thus also improves disease states of lung diseases in PH patients with pathological bronchoconstriction. This effect was measured via bodyplethysmography as reduction of Specific Airway Resistance in healthy subjects. […]

The nature of series [1]: Phase I, healthy male subjects, 7 days: plasma concentrations over time. Conditions: after first inhalation, all doses. The format is in vivo, human. The protocol:
as §1

Series [2] concerns anesthetized PAH minipigs. Description: PAH minipig, intratracheal application of dry powder formulations and of different hydrates (PAP, BP). The format is in vivo, Göttingen Minipigs. Conditions: 375 μg/kg i.t. The method, then:
Healthy Göttingen Minipigs® Ellegaard (Ellegaard, Denmark) of both sexes and having a weight of 2-6 kg were used. The animals were sedated by i.m. administration of about 25 mg/kg ketamine and about 10 mg/kg azaperone. Anaesthesia was initiated by i.v. administration of about 2 mg/kg ketamine and about 0.3 mg/kg midazolam. Maintenance of anaesthesia was by i.v. administration of about 7.5-30 mg/kg/h ketamine and about 1-4 mg/kg/h midazolam (rate of infusion 1-4 ml/kg/h) and about 150 μg/kg/h pancuronium bromide (for example Pancuronium-Actavis). After intubation, the animals were ventilated by the ventilator at a constant respiratory volume (10-12 ml/kg, 35 breaths/min; Avea®, Viasys Healthcare, USA, or Engström Carestation, GE Healthcare, Freiburg, Germany) such that an end-tidal CO2 concentration of about 5% was achieved. Ventilation was performed with room air, enriched with about 40% oxygen (normoxia). For the measurement of the haemodynamic parameters such as pulmonary arterial pressure (PAP), blood pressure (BP) and heart rate (HR), catheters were inserted into the carotid artery to measure the blood pressure, and a Swan-Ganz® catheter was introduced in a flow-directed manner via the jugular vein into the pulmonary artery. The haemodynamic signals were recorded and evaluated by means of pressure transducers (Combitransducer, B. Braun, Melsungen, Germany)/amplifiers and Ponemah® as data acquisition software.
About 0.3-0.75 μg/kg/min of 9,11-didesoxy-9α,11α-epoxymethanoprostaglandine F2α (U-44069; Sigma, cat. no. D0400, or Cayman Chemical Company, cat. no. 16440), dissolved in physiological saline, were infused to achieve an increase of the mean pulmonary arterial pressure to values of over 25 mmHg.
After characterization of the effects of comparative example 11 after nebulization of compound solutions, in a further step the effects of crystalline forms of comparative example 11, e.g. sesquihydrate, e.g. example 6e on PAP and BP after inhaled application of different dry powder lactose formulations (table 52) were studied in anesthetized PAH minipigs.
As reference pure Lactose vehicle was applied in the beginning of each experiment.

The next series relates to cGMP. In words: Phase I, healthy male subjects, inhaled once daily for 7 days: cGMP in blood samples. The format is in vivo, human. The method, then: Healthy White male subjects, aged 18 to 45 years and with a body mass index (BMI) above/equal 18.5 and below/equal 29.9 kg/m2 were treated in a clinical pharmacological phase I study on seven days with inhaled once daily doses of 480 or 1000 or 2000 μg (2 capsules of 1000 μg) (nominal dose) of dry powder formulations of example 2 or Placebo. The subjects inhaled the drug powder from capsules (see under C, e.g. tables 22 and 23) inserted into a handheld inhalation device by one deep inhalative breath. The dry powder formulation of the drug is dispersed into the airstream and fine particles are transported into the deep parts of the lung where it is intended to cause a vasodilation of the blood vessels in PH patients for a substantial reduction of increased blood pressure in the central pulmonary blood vessels in PAH patients or other subtypes of PH. This effect cannot be shown in subjects with healthy lungs. In addition inhaled drug causes a dilation of the bronchial airways and thus also improves disease states of lung diseases in PH patients with pathological bronchoconstriction. This effect was measured via bodyplethysmography as reduction of Specific Airway Resistance in healthy subjects. After the deep inhalative breath the subjects hold breath for 2 seconds, so that the dry powder drug condenses from the airstream onto the surface of the deeper lung areas where it is deposited close to its site of intended pharmacological action. The drug dissolutes over the day and equilibrates the lung via lining fluid.
Drug activity in healthy men was controlled in the healthy subjects by analysing blood samples for cGMP, the immediate product of sGC pharmacological activation prior after the first and after the last drug inhalation of the 7 days treatment in comparison to measurements on the pretreatment day for all doses.

Series [3] is described as follows: Storage stability of pseudopolymorphic forms (XRPD). The format is physicochemical.
Series [4] can be described thus: Micronization of monohydrate II and monohydrate I (spiral jet mill): solid form after micronization. The format is physicochemical. The source says:
Generally no amorphization even partial nor form conversion should happen during the necessary micronization step.
The corresponding batches (examples 8a-8d) were micronized using a 50 mm spiral jet mill and pressurized nitrogen with the following parameters (see table 16b).
The corresponding batches were micronized using a 100 mm spiral jet mill and pressurized nitrogen with the following parameters (see table 16c).

For series [5] the following is noted: XRPD.
Procedure: There was no sample preparation.
3 g (5S)—{[2-(4-Carboxyphenyl)ethyl][2-(2-{[3-chloro-4′-(trifluoromethyl)biphenyl-4-yl]methoxy}-phenyl)ethyl]amino}-5,6,7,8-tetrahydroquinoline-2-carboxylic acid monohydrate I, (material prepared in analogy to example 3/4) were suspended in 20 mL of methanol. The suspension was stirred at ambient conditions for eight days. The residue was filtered and the resulting solid was dryed at ambient conditions. • water content: 4.8% water • Raman: see table 13, see FIG. 17 • IR: see table 14, see FIG. 24 • XRPD: see table 12, see FIG. 10

In the case of `O=C(O)c1ccc(CCN(CCc2ccccc2OCc2ccc(-c3ccc(C(F)(F)F)cc3)cc2Cl)[C@H]2CCCc3nc(C(=O)O)ccc32)cc1` [Example 2, (5S)—{[2-(4-Carboxyphenyl)ethyl][2-(2-{[3-chloro-4′-(trifluoromethyl)biphenyl-4-yl]methoxy}phenyl)-ethyl]amino}-5,6,7,8-tetrahydroquinoline-2-carboxylic Acid as Monohydrate II], the “total specific airway resistance (means)” value with healthy male subjects (480 μg inhaled once daily, 0 D 06 H 00 M) is listed as 0.800 ± 0.187 kPa/sec; in the series on healthy male subjects (2000 μg inhaled once daily, 7 D 06 H 00 M), 0.730 ± 0.151 kPa/sec. For the same compound, in series [1], the “measurable plasma concentration persisted for” value turned out to be 48 h. Besides, the “efficacy with regard to PAP reduction and systemic BP reduction” value in series [2] (micronized hydrates) was “comparable efficacy”. Besides, in series [2] (time 160, per animal), the “PAP(mean)” value is 27.8 mmHg. The “cGMP over time (means)” value with cGMP (480 μg inhaled once daily, 7 D 15 H 00 M) is 8.56 ± 2.80 nmol/L; in the series on cGMP (480 μg inhaled once daily, 8 D 00 H 00 M), 7.20 ± 3.23 nmol/L; with cGMP (480 μg inhaled once daily, 8 D 12 H 00 M), 6.20 ± 2.00 nmol/L; in the series with cGMP (480 μg inhaled once daily, 9 D 00 H 00 M), 5.64 ± 2.53 nmol/L; in the series with cGMP (480 μg inhaled once daily, −0 D 09 H 00 M) it was 5.60 ± 1.08 nmol/L; in the series with cGMP (480 μg inhaled once daily, −1 D 02 H 00 M) it was 5.40 ± 1.41 nmol/L. In addition, the “cGMP over time (means)” value with cGMP (1000 μg inhaled once daily, 5 D 00 H 00 M) is listed as 8.50 ± 2.13 nmol/L; with cGMP (1000 μg inhaled once daily, −0 D 20 H 00 M), 4.78 ± 1.37 nmol/L; with cGMP (1000 μg inhaled once daily, −0 D 22 H 00 M), 5.10 ± 1.46 nmol/L; in the series with cGMP (2000 μg inhaled once daily, 2 D 00 H 00 M) it was 6.40 ± 2.09 nmol/L; in the series with cGMP (2000 μg inhaled once daily, 3 D 00 H 00 M), 10.00 ± 3.51 nmol/L; with cGMP (2000 μg inhaled once daily, 8 D 00 H 00 M), 16.00 ± 5.77 nmol/L. Besides, the “cGMP over time (means)” value in the series on cGMP (2000 μg inhaled once daily, 9 D 12 H 00 M) came out at 9.40 ± 3.10 nmol/L; with cGMP (2000 μg inhaled once daily, −0 D 18 H 00 M), 4.32 ± 1.33 nmol/L. For the same compound, the “Result (solid form after storage)” value was “monohydrate II” in series [3] (example 7a: brown glass snap on closure, 25° C., 60% relative humidity); “monohydrate I” in series [3] (example 7b: polyethylene, 25° C., 60% relative humidity); “monohydrate I” in series [3] (example 7c: polyethylene, 40° C., 75% relative humidity); “monohydrate I” in series [3] (example 7d: brown glass closed with paper filter disc, 40° C., 75% relative humidity). For the same compound, in series [4] (example 2 batch), the XRPD after micronization entry was “monohydrate II with partial amorphization”. Also, the “solid form after micronization” value in series [4] (example 8a: VA jet mill (diameter 50 mm), 25° C.) is “transformation from monohydrate II to monohydrate I”; in series [4] (example 8b, several conditions, even low stress) it was “partial amorphization”.
`O.O.O=C(O)c1ccc(CCN(CCc2ccccc2OCc2ccc(-c3ccc(C(F)(F)F)cc3)cc2Cl)[C@H]2CCCc3nc(C(=O)O)ccc32)cc1` [Example 6f]: the “solid form after drying” value in series [5] is listed as “went amorphous”.
